The experiment is described as follows: Displacement of [3H]Ro151788 from GABA-A receptor in Wistar rat cerebellar membrane after 1 hr by liquid scintillation counting. It is filed as cell membranes, Cerebellum.

Among the data in ChEMBL document CHEMBL1208702, “Use of 2-[(18)F]fluoroethylazide for the Staudinger ligation - Preparation and characterisation of GABA(A) receptor binding 4-quinolones” (Bioorg Med Chem Lett, 2010) are Ki values, retold here.

The structures appear in SMILES notation.

As a reminder, the Ki is the dissociation constant of the complex between target and ligand, obtained from inhibition or displacement. A high value points to a looser hold on the target.

`CCc1ccc2[nH]cc(C(=O)NCCF)c(=O)c2c1`: the affinity, expressed as Ki, was 3.6 nM.
